What is called EC50 is the concentration giving half of the maximal effect.

The target in this assay is T1, human GLP-1 receptor (Homo sapiens, UniProt P43220).
T1 construct: expressed in transfected cells
T1 sequence (P43220 24-463): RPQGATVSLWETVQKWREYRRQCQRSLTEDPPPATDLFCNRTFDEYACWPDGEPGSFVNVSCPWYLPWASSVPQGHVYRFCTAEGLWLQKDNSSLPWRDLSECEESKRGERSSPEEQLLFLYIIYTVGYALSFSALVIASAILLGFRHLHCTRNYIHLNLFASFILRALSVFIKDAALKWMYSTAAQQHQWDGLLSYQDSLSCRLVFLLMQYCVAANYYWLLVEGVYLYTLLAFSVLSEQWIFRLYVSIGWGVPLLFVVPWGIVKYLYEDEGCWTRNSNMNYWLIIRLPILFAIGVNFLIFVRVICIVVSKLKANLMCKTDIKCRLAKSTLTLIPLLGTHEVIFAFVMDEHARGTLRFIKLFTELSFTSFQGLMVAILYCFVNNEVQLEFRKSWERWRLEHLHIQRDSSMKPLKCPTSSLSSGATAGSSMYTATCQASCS
Description: GLP-1R cAMP Assay (HitHunter cAMP accumulation). The class given is cell-based. Particulars: cAMP accumulation, CHO cells stably overexpressing human GLP-1 receptor, 30 min treatment; read-out: EC50. The protocol:
cAMP accumulation was measured in Chinese hamster ovary (CHO) cells stably overexpressing the human GLP-1 receptor using the HitHunter cAMP Assay for Small Molecules Kit (Eurofins). Briefly, cells were grown in Ham's F12 Nutrient Mix with 10% FBS, and lifted with Cell Dissociation Buffer, Enzyme free, PBS based (ThermoFisher). Cells were pelleted, and resuspended in Hank's buffered saline solution with 10 mM HEPES, and 625 μM 3-isobutyl-1-methylxanthine. The anti-cAMP antibody reagent was then added to cells at a 1:2 ratio and 5 μL of mixture was seeded in 384-well small volume white assay plates, at 10,000 cells/well. Cells were then treated with 50 nL compound using an ECHO 550 acoustic dispenser (Labcyte) in a 20-point dose response format in triplicate for 30 min. Cells were then lysed, and detection reagents added according to the manufacturer's protocol. After overnight incubation, luminescence was measured using a Perkin Elmer Envision plate reader. Dose response curves were analyzed using GraphPad Prism 9.0. […]
Regarding `N#Cc1ccc(OCc2nc(C3C[C@H](CF)N(Cc4nc5ccc(C(=O)O)cc5n4C[C@@H]4CCO4)C3)ccc2F)c(F)c1` (mixture of isomers) [Compound 528, 2-(((2R)-4-(6-((4-Cyano-2-fluorophenoxy)methyl)-5-fluoropyridin-2-yl)-2-(fluoromethyl)pyrrolidin-1-yl)methyl)-1-(((S)-oxetan-2-yl)methyl)-1H-benzo[d]imidazole-6-carboxylic acid], the EC50 was below 50 nM.

`N#Cc1ccc(OCc2nc(C34CC3CN(Cc3nc5ccc(C(=O)O)cc5n3C[C@@H]3CCO3)C4)ccc2F)c(F)c1` (mixture of isomers) [Example 522, 2-((1-(6-((4-Cyano-2-fluorophenoxy)methyl)-5-fluoropyridin-2-yl)-3-azabicyclo[3.1.0]hexan-3-yl)methyl)-1-(((S)-oxetan-2-yl)methyl)-1H-benzo[d]imidazole-6-carboxylic acid]: the EC50 is below 50 nM.

For the molecule `CCn1cncc1Cn1c(CN2CCC(c3cccc(Oc4ccccc4)c3)C2)nc2ccc(C(=O)O)cc21` (racemic) [Example 134, 1-((1-Ethyl-1H-imidazol-5-yl)methyl)-2-((3-(3-phenoxyphenyl)pyrrolidin-1-yl)methyl)-1H-benzo[d]imidazole-6-carboxylic acid], the concentration giving a half-maximal response (EC50) was in the range of 50 to 500 nM.

On to `CCn1cncc1Cn1c(CN2CCC(Cc3cccc4c3O[C@](C)(c3ccc(Cl)cc3F)O4)CC2)nc2ccc(C(=O)O)cc21` (single isomer, unassigned) [Compound 222], for which the concentration for a half-maximal effect (EC50) is below 50 nM.

As to `CCn1cncc1Cn1c(CN2CCC(Cc3cccc4c3O[C@@](C)(c3ccc(Cl)cc3F)O4)CC2)nc2ccc(C(=O)O)cc21` (single isomer, unassigned) [Compound 223], the EC50 is below 50 nM.

Turning to `O=C(O)c1ccc2nc(CN3CC[C@@H](c4ccc(F)c(COc5ccc(Cl)cc5F)n4)C3)n(C[C@@H]3CCO3)c2c1` (single isomer, unassigned) [Compound 516], the EC50 was below 50 nM.

For `O=C(O)c1ccc2nc(CN3CC[C@H](c4ccc(F)c(COc5ccc(Cl)cc5F)n4)C3)n(C[C@@H]3CCO3)c2c1` (single isomer, unassigned) [Compound 517], the half-maximal effective concentration (EC50) was below 50 nM.

Turning to `N#Cc1ccc(OCc2nc([C@@H]3CCN(Cc4nc5ccc(C(=O)O)cc5n4C[C@@H]4CCO4)C3)ccc2F)c(F)c1` (single isomer, unassigned) [Compound 518], the EC50 was below 50 nM.

In the case of `N#Cc1ccc(OCc2nc([C@H]3CCN(Cc4nc5ccc(C(=O)O)cc5n4C[C@@H]4CCO4)C3)ccc2F)c(F)c1` (single isomer, unassigned) [Compound 519], the concentration giving a half-maximal response (EC50) is below 50 nM.

For `N#Cc1ccc(OCc2nc([C@@H]3C[C@@H](CF)N(Cc4nc5ccc(C(=O)O)cc5n4C[C@@H]4CCO4)C3)ccc2F)c(F)c1` (single isomer, unassigned) [Compound 526], the EC50 was 50 to 500 nM.

With `N#Cc1ccc(OCc2nc([C@@H]3C[C@@H](CF)N(Cc4nc5ccc(C(=O)O)cc5n4C[C@@H]4CCO4)C3)ccc2F)c(F)c1` (single isomer, unassigned) [Compound 527], the concentration giving a half-maximal response (EC50) is below 50 nM.

`O=C(O)c1ccc2nc(CN3CC[C@@H](c4cccc(COc5ccc(Cl)cc5Cl)c4)C3)n(C[C@@H]3CCO3)c2c1` (single isomer, unassigned) [Example 405]: the EC50 is below 50 nM.

On to `O=C(O)c1ccc2nc(CN3CC[C@H](c4cccc(COc5ccc(Cl)cc5Cl)c4)C3)n(C[C@@H]3CCO3)c2c1` (single isomer, unassigned) [Example 406], for which the EC50 was below 50 nM.

Take `O=C(O)c1ccc2nc(CN3CC[C@@H](c4cccc(COc5ccc(Cl)cc5F)c4)C3)n(C[C@@H]3CCO3)c2c1` (single isomer, unassigned) [Example 411]: the concentration giving a half-maximal response (EC50) is below 50 nM.

`O=C(O)c1ccc2nc(CN3CC[C@H](c4cccc(COc5ccc(Cl)cc5F)c4)C3)n(C[C@@H]3CCO3)c2c1` (single isomer, unassigned) [Example 412]: the 50% effective concentration (EC50) lay in the range of 50 to 500 nM.

Turning to `O=C(O)c1cc(F)c2nc(CN3CC[C@H](c4ccnc(COc5ccc(Cl)cc5F)c4)C3)n(C[C@@H]3CCO3)c2c1` (single isomer, unassigned) [Example 427], the EC50 was below 50 nM.

With `N#Cc1ccc(OCc2cc([C@H]3CCN(Cc4nc5c(F)cc(C(=O)O)cc5n4C[C@@H]4CCO4)C3)ccc2F)c(F)c1` (single isomer, unassigned) [Example 449], the concentration giving a half-maximal response (EC50) was below 50 nM.

As for `CCn1cncc1Cn1c(CN2CC(Cc3cnc(COc4ccc(Cl)cc4C#N)o3)C2)nc2ccc(C(=O)O)cc21` [Compound 167, 2-{[3-({2-[(4-chloro-2-cyanophenoxy)methyl]-1,3-oxazol-5-yl}methyl)azetidin-1-yl]methyl}-1-[(1-ethyl-1H-imidazol-5-yl)methyl]-1H-1,3-benzodiazole-6-carboxylic acid], the 50% effective concentration (EC50) is below 50 nM.

Consider `CC1(c2ccc(Cl)cn2)Oc2cccc(CC3CN(Cc4nc5ccc(C(=O)O)cc5n4C[C@@H]4CCO4)C3)c2O1` (stereo partly drawn) [Compound 172, 2-[(3-{[2-(5-chloropyridin-2-yl)-2-methyl-2H-1,3-benzodioxol-4-yl]methyl}azetidin-1-yl)methyl]-1-{[(2S)-oxetan-2-yl]methyl}-1H-1,3-benzodiazole-6-carboxylic acid], for which the EC50 is above 500 nM.

As for `CCn1cncc1Cn1c(CN2CC(=Cc3ccnc(COc4ccc(Cl)cc4Cl)c3)C2)nc2ccc(C(=O)O)cc21` [Compound 175, 2-{[3-({2-[(2,4-dichlorophenoxy)methyl]pyridin-4-yl}methylidene)azetidin-1-yl]methyl}-1-[(1-ethyl-1H-imidazol-5-yl)methyl]-1H-1,3-benzodiazole-6-carboxylic acid], the concentration giving a half-maximal response (EC50) was below 50 nM.

Regarding `CCn1cncc1Cn1c(CN2CC(Cc3ccnc(COc4ccc(Cl)cc4Cl)c3)C2)nc2ccc(C(=O)O)cc21` [Compound 176, 2-{[3-({2-[(2,4-dichlorophenoxy)methyl]pyridin-4-yl}methyl)azetidin-1-yl]methyl}-1-[(1-ethyl-1H-imidazol-5-yl)methyl]-1H-1,3-benzodiazole-6-carboxylic acid], the EC50 was below 50 nM.

On to `O=C(O)c1ccc2nc(CN3CC(Cc4ccnc(COc5ccc(Cl)cc5Cl)c4)C3)n(C[C@H]3CCOC3)c2c1` [Compound 180], for which the concentration giving a half-maximal response (EC50) is below 50 nM.

On to `O=C(O)c1ccc2nc(CN3CC(Cc4ccnc(COc5ccc(Cl)cc5Cl)c4)C3)n(Cc3ncco3)c2c1` [Compound 181, 2-{[3-({2-[(2,4-dichlorophenoxy)methyl]pyridin-4-yl}methyl)azetidin-1-yl]methyl}-1-[(1,3-oxazol-2-yl)methyl]-1H-1,3-benzodiazole-6-carboxylic acid], for which the EC50 is below 50 nM.

Turning to `CCn1cncc1Cn1c(CN2CCC(Cc3cccc4c3OC(C)(c3ccc(Cl)cn3)O4)CC2)nc2ccc(C(=O)O)cc21` (stereo not drawn) [Compound 184, 2-[(4-{[2-(5-chloropyridin-2-yl)-2-methyl-2H-1,3-benzodioxol-4-yl]methyl}piperidin-1-yl)methyl]-1-[(1-ethyl-1H-imidazol-5-yl)methyl]-1H-1,3-benzodiazole-6-carboxylic acid], the concentration giving a half-maximal response (EC50) is below 50 nM.

Take `CCn1cncc1Cn1c(CN2CC(Cc3cccc4c3OC(C)(c3ccc(Cl)cn3)O4)C2)nc2ccc(C(=O)O)cc21` (stereo not drawn) [Compound 185, 2-[(3-{[2-(5-chloropyridin-2-yl)-2-methyl-2H-1,3-benzodioxol-4-yl]methyl}azetidin-1-yl)methyl]-1-[(1-ethyl-1H-imidazol-5-yl)methyl]-1H-1,3-benzodiazole-6-carboxylic acid]: the EC50 is 50 to 500 nM.

`O=C(O)c1ccc2nc(CN3CC(=Cc4ccnc(COc5ccc(Cl)cc5Cl)c4)C3)n(C[C@@H]3CCO3)c2c1` [Compound 190, 2-{[3-({2-[(2,4-dichlorophenoxy)methyl]pyridin-4-yl}methylidene)azetidin-1-yl]methyl}-1-{[(2S)-oxetan-2-yl]methyl}-1H-1,3-benzodiazole-6-carboxylic acid]: the EC50 is below 50 nM.

Regarding `O=C(O)c1ccc2nc(CN3CC(Cc4cnc(COc5ccc(Cl)cc5Cl)o4)C3)n(C[C@@H]3CCO3)c2c1` [Compound 191], the EC50 was below 50 nM.

With `N#Cc1cc(Cl)ccc1OCc1cccc(OC2CN(Cc3nc4ccc(C(=O)O)cc4n3C[C@@H]3CCO3)C2)c1` [Compound 194], the EC50 is below 50 nM.

In the case of `O=C(O)c1ccc2nc(CN3CC(=Cc4cccc(COc5ccc(Cl)cc5Cl)c4)C3)n(C[C@@H]3CCO3)c2c1` [Compound 195], the EC50 was below 50 nM.

Take `CCn1cncc1Cn1c(CN2CC(=Cc3cccc(COc4ccc(Cl)cc4Cl)c3)C2)nc2ccc(C(=O)O)cc21` [Compound 196]: the EC50 is below 50 nM.

In the case of `CCn1cncc1Cn1c(CN2CCC(Cc3cccc4c3OC(C)(c3ccc(Cl)cc3F)O4)CC2)nc2ccc(C(=O)O)cc21` (stereo not drawn) [Compound 209], the EC50 is below 50 nM.

In the case of `CCn1cncc1Cn1c(CN2CC(Oc3cccc(COc4ccc(Cl)cc4Cl)c3)C2)nc2ccc(C(=O)O)cc21` [Compound 210, 2-[(3-{3-[(2,4-dichlorophenoxy)methyl]phenoxy}azetidin-1-yl)methyl]-1-[(1-ethyl-1H-imidazol-5-yl)methyl]-1H-1,3-benzodiazole-6-carboxylic acid], the EC50 is below 50 nM.

As to `CCn1cncc1Cn1c(CN2CC(Oc3ccnc(COc4ccc(Cl)cc4C#N)c3)C2)nc2ccc(C(=O)O)cc21` [Compound 211, 2-{[3-({2-[(4-chloro-2-cyanophenoxy)methyl]pyridin-4-yl}oxy)azetidin-1-yl]methyl}-1-[(1-ethyl-1H-imidazol-5-yl)methyl]-1H-1,3-benzodiazole-6-carboxylic acid], the concentration for a half-maximal effect (EC50) was below 50 nM.

(Values after US20220396569A1 (Carmot Therapeutics, Inc., priority 2021, published 2022).)
